Consider 19 compounds from patent publication US8946437B2, “4-(methylaminophenoxy)pyrdin-3-yl-benzamide derivatives for treating cancer” (Otsuka Pharmaceutical Co., Ltd., priority 2010, dated 2015).

For series [1], the system named is human hepatic cancer cells (HuH-7). The experiment in a line: Antiproliferative effect on cancer cells (in vitro), sulforhodamine B method. Type of series: cell-based. The settings on record: 120 h, HuH-7 cells, 5 days incubation with test compound, SRB staining, read-out: IC50 (50% inhibitory concentration), growth inhibition of HuH-7 cells. How it is done: Antiproliferative Effect on Cancer Cells (In Vitro)
Growth inhibition of human hepatic cancer cells (HuH-7) was determined by the sulforhodamine B method based on the method of Skehan P. et al. (J Natl Cancer Inst. 1990 Jul. 4; 82(13): 1107-12). In the study, HuH-7 cells were seeded on DMEM medium containing 10% fetal bovine serum in a 96-well microplate. After 24-hour incubation at 37° C. in the presence of 5% carbon dioxide, the test compound was added and the cells were incubated for another 5 days. After incubation, a trichloroacetic acid solution was added to yield the final concentration of 10% and the cells were left to stand at 4° C. for 1 hour to fix. Then, the cells were washed with water to remove the medium and trichloroacetic acid and dried in the air. The dried cells were stored at 4° C. until they were stained with sulforhodamine B. To each well, 1% acetic acid solution containing 0.4% sulforhodamine B was added and left to stand for 20 to 30 minutes at room temperature. After discarding the supernatant, each well was washed with 1% acetic acid solution, and 10 mM Tris(tris-(hydroxymethyl)aminomethane) solution was added while stirring to elute the dye taken into the cells. Then, the optical density was determined at the measurement wavelength of 492 nm and the reference wavelength of 690 nm, and the difference was calculated. The cell growth activity in each well was defined as the value determined by subtracting the OD in the control well not containing cells (the difference in absorbance between 492 nm and 690 nm) from that in the test well.
The 50% inhibitory concentration (IC50 (nM)) of the test compound was determined by comparing the cell growth activity in the well containing the test compound with that of the control not containing the test compound.
Background: The SRB assay estimates cell density from bound dye.

The nature of series [2]: Metabolic stability test in hepatic microsome. Type of series: in vitro ADME. The settings on record: liver microsomes, NADH/NADPH, 37° C., 0, 10 and 20 min, read-out: CLint (intrinsic clearance). Here is the method:
Metabolic Stability Test in Hepatic Microsome
In this study, 222.5 μL of 0.22 mg/mL liver microsome was distributed to each tube, and 2.5 μL of 100 μM test compound was added thereto. Then, 22.5 μL of this mixture was divided to 500 μL of acetonitrile spiked IS as 0 min sample, and the residue was pre-incubated at 37° C. for 5 min. Reaction was started by the addition of 22.5 μL of 10 mM NADH/NADPH, and after 10 and 20 min, 25 μL of the reaction mixture was divided to 500 μL of acetonitrile spiked IS. The samples were centrifuged (5700 rpm, 4° C., 10 min), and the supernatants were analyzed by LC/MS/MS. The slope of the linear regression from log percentage remaining versus incubation time relationships (−ke) was calculated, and the intrinsic clearance (CLint) was calculated using the following equation.

Series [3] is described as follows: Stability test of dissolved compounds under heat- and acid-stress condition. Type of series: physicochemical. The settings on record: dissolved in water/acetonitrile/trifluoroacetic acid (500:500:1), stored at 70° C., Day 0, Day 1 and Day 3. How it is done: In order to estimate the stability of compounds without conducting a long-term stability test, the stability of the dissolved compounds was evaluated under a heat- and acid-stress condition.
About 0.005 g of test compound was dissolved in 50 mL of a mobile phase, and this solution was used as the sample solution. The solutions were put into a brown glass vial and stored at 70° C. during the test period. The test with 20 μL of each of the sample solution was conducted at the following sampling points as directed under the Liquid Chromatography according to the following conditions. The residual ratio of the test compound's peak area (%) in the total peak area detected in the solution was determined by the automatic integration method. Operating conditions were as follows. […] The residual ratio of the test compound's peak area (%) is calculated as follows. The peak area of the test compound/The total peak area detected in the solution×100.

Structures can show the parent of a compound that is named as a salt.

Compound `CNc1ccc(Oc2ccc(NC(=O)c3ccc(F)c(F)c3F)cn2)c(OC)c1.Cl` yielded a melting point of 207.1 to 209.8 °C.

On to `CNc1ccc(Oc2ccc(NC(=O)c3ccc(-c4ccccc4)cc3)cn2)c(F)c1` [Example 2, N-{6-[2-Fluoro-4-(methylamino)phenoxy]pyridin-3-yl}biphenyl-4-carboxamide], for which the melting point was 190 to 190.5 °C (dec.). The IC50 in series [1] was determined as 108 nM. Also, the microsomal CLint at 1 µM in series [2] was < 200 µL/min/mg.

For the compound `CNc1ccc(Oc2ccc(NC(=O)c3ccc(C(F)(F)F)cc3)cn2)c(F)c1` [Example 3, N-{6-[2-Fluoro-4-(methylamino)phenoxy]pyridin-3-yl}-4-(trifluoromethyl)benzamide], the IC50 in series [1] came to 155 nM. Further, the microsomal CLint at 1 µM in series [2] was < 200 µL/min/mg.

As to `CNc1ccc(Oc2ccc(NC(=O)c3ccc(Oc4ccccc4)cc3)cn2)c(C)c1` [Example 6, N-{6-[2-Methyl-4-(methylamino)phenoxy]pyridin-3-yl}-4-phenoxybenzamide], the IC50 in series [1] is 78.5 nM. Besides, in series [2], the microsomal CLint at 1 µM is < 200 µL/min/mg.

Turning to `CNc1ccc(Oc2ccc(NC(=O)c3ccc(-c4ccccc4)cc3)cn2)c(C)c1` [Example 7, N-{6-[2-Methyl-4-(methylamino)phenoxy]pyridin-3-yl}biphenyl-4-carboxamide], the IC50 in series [1] was 77.6 nM. Further, in series [2], the microsomal CLint at 1 µM is < 200 µL/min/mg.

On to `CNc1ccc(Oc2ccc(NC(=O)c3ccc(C(F)(F)F)cc3F)cn2)c(C)c1` [Example 9, 2-Fluoro-N-{6-[2-methyl-4-(methylamino)phenoxy]pyridin-3-yl}-4-(trifluoromethyl)benzamide], for which, in series [1], the IC50 stood at 70.4 nM. Besides, in series [2], the microsomal CLint at 1 µM was < 200 µL/min/mg.

As to `CNc1ccc(Oc2ccc(NC(=O)c3ccc(Oc4ccccc4)cc3)cn2)cc1` [Example 10, N-{6-[4-(Methylamino)phenoxy]pyridin-3-yl}-4-phenoxybenzamide], the IC50 in series [1] turned out to be 320 nM.

Turning to `CNc1ccc(Oc2ccc(NC(=O)c3ccc(-c4ccccc4)cc3)cn2)cc1` [Example 11, N-{6-[4-(Methylamino)phenoxy]pyridin-3-yl}biphenyl-4-carboxamide], the IC50 in series [1] came to 311 nM.

`CNc1ccc(Oc2ccc(NC(=O)c3ccc(-c4ccccc4)cc3)cn2)c(OC)c1` [Example 14, N-{6-[2-Methoxy-4-(methylamino)phenoxy]pyridin-3-yl}biphenyl-4-carboxamide] had a melting point of 161.4 to 161.8 °C. Also, the IC50 in series [1] was 248 nM. The microsomal CLint at 1 µM in series [2] is < 200 µL/min/mg.

Regarding `CNc1ccc(Oc2ccc(NC(=O)c3ccc(Oc4ccccc4)cc3)cn2)c(F)c1` [Example 21, N-{6-[2-fluoro-4-(methylamino)phenoxy]pyridin-3-yl}-4-phenoxybenzamide hydrochloride], the IC50 in series [1] was found to be 136 nM.

For the compound `CNc1ccc(Oc2ccc(NC(=O)c3ccc(C(F)(F)F)cc3F)cn2)c(F)c1` [Example 22, 2-Fluoro-N-{6-[2-fluoro-4-(methylamino)phenoxy]pyridin-3-yl}-4-(trifluoromethyl)benzamide hydrochloride], in series [1], the IC50 was 163 nM. In series [2], the microsomal CLint at 1 µM is < 200 µL/min/mg.

`CNc1ccc(Oc2ccc(NC(=O)c3ccc(F)c(F)c3F)cn2)c(F)c1` [Example 23, 2,3,4-Trifluoro-N-{6-[2-fluoro-4-(methylamino)phenoxy]pyridin-3-yl}benzamide hydrochloride]: the IC50 in series [1] stood at 753 nM.

For the compound `CNc1ccc(Oc2ccc(NC(=O)c3ccc(C(F)(F)F)cc3)cn2)c(C)c1` [Example 24, N-{6-[2-methyl-4-(methylamino)phenoxy]pyridin-3-yl}-4-(trifluoromethyl)benzamide hydrochloride], the IC50 in series [1] was 72.3 nM. Moreover, the microsomal CLint at 1 µM in series [2] was < 200 µL/min/mg.

Consider `CNc1ccc(Oc2ccc(NC(=O)c3ccc(F)c(F)c3F)cn2)c(C)c1.Cl` [Example 25, 2,3,4-Trifluoro-N-{6-[2-methyl-4-(methylamino)phenoxy]pyridin-3-yl}benzamide hydrochloride], for which the melting point is 222.9 to 225.4 °C (dec.). For the same compound, the IC50 in series [1] was determined as 485 nM. Also, the microsomal CLint at 1 µM in series [2] is < 200 µL/min/mg.

In the case of `CNc1ccc(Oc2ccc(NC(=O)c3ccc(Oc4ccccc4)cc3)cn2)c(OC)c1.Cl` [Example 26, N-{6-[2-Methoxy-4-(methylamino)phenoxy]pyridin-3-yl}-4-phenoxybenzamide hydrochloride], the melting point was in the range of 202.2 to 202.3 °C. In addition, the IC50 in series [1] was determined as 275 nM. Besides, the microsomal CLint at 1 µM in series [2] was < 200 µL/min/mg.

Turning to `CNc1ccc(Oc2ccc(NC(=O)c3ccc(C(F)(F)F)cc3)cn2)c(OC)c1.Cl` [Example 27, N-{6-[2-Methoxy-4-(methylamino)phenoxy]pyridin-3-yl}-4-(trifluoromethyl)benzamide hydrochloride], the melting point was in the range of 217.6 to 218.2 °C. In addition, the IC50 in series [1] was found to be 304 nM. For the same compound, the microsomal CLint at 1 µM in series [2] was < 200 µL/min/mg.

On to `CNc1ccc(Oc2ccc(NC(=O)c3ccc(C(F)(F)F)cc3F)cn2)c(OC)c1.Cl` [Example 28, 2-Fluoro-N-{6-[2-methoxy-4-(methylamino)phenoxy]pyridin-3-yl}-4-(trifluoromethyl)benzamide hydrochloride], for which the melting point lay within 197 to 198.1 °C. Also, the IC50 in series [1] stood at 293 nM. The microsomal CLint at 1 µM in series [2] is < 200 µL/min/mg.

`CNc1ccc(Oc2ccc(NC(=O)c3ccc(C(F)(F)F)cc3)cn2)cc1.Cl` [Example 30, N-{6-[4-(Methylamino)phenoxy]pyridin-3-yl}-4-(trifluoromethyl)benzamide hydrochloride]: the IC50 in series [1] was 275 nM. Moreover, the “storage stability (residual ratio of the test compound's peak area)” value in series [3] is “superior storage stability”. Further, in series [2], the microsomal CLint at 1 µM is < 200 µL/min/mg.

Consider `CNc1ccc(Oc2ccc(NC(=O)c3ccc(C(F)(F)F)cc3F)cn2)cc1` [Example 31, 2-Fluoro-N-{6-[4-(methylamino)phenoxy]pyridin-3-yl}-4-(trifluoromethyl)benzamide hydrochloride], for which the IC50 in series [1] stood at 327 nM. Also, the microsomal CLint at 1 µM in series [2] is < 200 µL/min/mg.

Usually melting point stands for the temperature of the solid-liquid transition.
